# Assay results: patent US20110105408A1, “THERAPEUTIC PEPTIDES” (INTER-K PTY LIMITED, priority 2008, published 2011)
# Test system: phospho-ERK in HT29 cells
# Test: Phospho-ERK ELISA (FACE ERK1/2 kit) in HT29 cells
# Assay type: cell-based, human
# Experimental: HT29 cells were harvested using 0.5% trypsin EDTA (Invitrogen) and 5000 cells were resuspended into 200 μL, and added to each well of a clear NUNC tissue culture treated 96 well plate (NUNC). Cells were seeded in DMEM media (Invitrogen) supplemented with 10% v/v foetal calf serum (FCS, Invitrogen), 1% L-Glutamine (Invitrogen) and 2% 1M HEPES buffer solution (Invitrogen). Cells were then incubated overnight at 37° C. The following day, the growth medium was replaced with 100 μL of serum-free DMEM supplemented with 1% L-glutamine and 2% 1M HEPES buffer solution, and incubated for a further 24 hours at 37° C. Dendrimers were added to test wells in serum free medium to provide final concentrations of the dendrimers ranging from 0.1-20 μLA. The total volume of each well was 200 uL, and cells were incubated at 37° C. for times ranging from 5 minutes to 4 hours. In those studies in which cells were subjected to stimulation by serum, 22 μL FCS (10% v/v final concentration) was added to wells for the final ten minutes of the culture period at 37° C. Serum-free media (SFM) only (22 μL) was added to non-serum stimulated cells.
# Phospho-ERK levels were determined using the FACE ERK1/2 ELISA kit according to the manufacturer's instructions (Active Motif, kit obtained from Australian Biosearch, WA, Australia). Briefly, media was replaced and cells fixed with 4% formaldehyde in PBS, and after a 1 hour with antibody blocking buffer (supplied), the primary phospho-ERK or total-ERK antibody was added and incubated overnight at 4° C. Antibody dilution buffer only was added to control test wells containing no primary antibody. The next day, HRP-conjugated secondary antibody was added for one hour before plates were developed and the absorbance measured at 450 nm using a Labsystems Multiskan EX microplate reader (Labsystems, Thermo Labsystems, UK).
# The effectiveness of the peptide dendrimer IK248 described in Example 2 in inhibiting growth factor mediated activation of ERK in HT29 cancer cells (i.e., (FCS stimulated) compared to various agents comprising the polypeptide RSKAKNPLYR (SEQ ID No. 6) coupled to different peptide facilitator moieties for facilitating passage of the polypeptide across the plasma cell membrane into the cytosol of the cells was evaluated. Phospho-ERK levels in the cells following treatment with 5 μM IK248 (Dend 8) for 1 hour or polypeptide-facilitator moiety agents (each at 5 μM for the same duration) were measured essentially as described in Example 1.3. The facilitator moieties utilised were the signal peptide fragment AAVALLPAVLLALLA (SEQ ID No. 16), the TAT-G peptide GRKKRRQRRRPPQG (SEQ ID No. 17), a modified pentratin sequence Tr-Pen RRQKWKKG (SEQ ID No. 18), and the penetratin peptide RQIKIWFQNRRMKWKKCS—SC (SEQ ID No. 19) wherein S—S indicates a disulphide bridge between the adjacent cysteine residues.
# The peptide RSKAKNPLYR (SEQ ID. No. 6) or peptide dendrimers of the type illustrated in FIG. 3 comprising lysine branching units presenting either 8 (IK248) or 10 (IK248B) monomer units of the peptide RSKAKNPLYR (SEQ ID No. 6) were utilised in this study. Phospho-ERK levels were evaluated by ELISA utilising an Active Motif FACE ERK1/2 ELISA kit (Australian Biosearch, WA, Australia) as described in Example 1.3.
smiles,measurement,setting,value
CC(C)C[C@H](NC(=O)[C@@H]1CCCN1C(=O)[C@H](CC(N)=O)NC(=O)[C@H](CCCCN)NC(=O)[C@H](C)NC(=O)[C@H](CCCCN)NC(=O)[C@H](CO)NC(=O)[C@@H](N)CCCNC(=N)N)C(=O)N[C@@H](Cc1ccc(O)cc1)C(=O)N[C@@H](CCCNC(=N)N)C(=O)NCCCC[C@H](NC(=O)[C@H](CCCCNC(=O)[C@H](CCCCNC(=O)[C@H](CCCNC(=N)N)NC(=O)[C@H](Cc1ccc(O)cc1)NC(=O)[C@H](CC(C)C)NC(=O)[C@@H]1CCCN1C(=O)[C@H](CC(N)=O)NC(=O)[C@H](CCCCN)NC(=O)[C@H](C)NC(=O)[C@H](CCCCN)NC(=O)[C@H](CO)NC(=O)[C@@H](N)CCCNC(=N)N)NC(=O)[C@H](CCCNC(=N)N)NC(=O)[C@H](Cc1ccc(O)cc1)NC(=O)[C@H](CC(C)C)NC(=O)[C@@H]1CCCN1C(=O)[C@H](CC(N)=O)NC(=O)[C@H](CCCCN)NC(=O)[C@H](C)NC(=O)[C@H](CCCCN)NC(=O)[C@H](CO)NC(=O)[C@@H](N)CCCNC(=N)N)NC(=O)[C@H](CCCCNC(=O)[C@H](CCCNC(=N)N)NC(=O)[C@H](Cc1ccc(O)cc1)NC(=O)[C@H](CC(C)C)NC(=O)[C@@H]1CCCN1C(=O)[C@H](CC(N)=O)NC(=O)[C@H](CCCCN)NC(=O)[C@H](C)NC(=O)[C@H](CCCCN)NC(=O)[C@H](CO)NC(=O)[C@@H](N)CCCNC(=N)N)NC(=O)[C@H](CCCNC(=N)N)NC(=O)[C@H](Cc1ccc(O)cc1)NC(=O)[C@H](CC(C)C)NC(=O)[C@@H]1CCCN1C(=O)[C@H](CC(N)=O)NC(=O)[C@H](CCCCN)NC(=O)[C@H](C)NC(=O)[C@H](CCCCN)NC(=O)[C@H](CO)NC(=O)[C@@H](N)CCCNC(=N)N)C(=O)NCCCC[C@H](NC(=O)[C@H](CCCCNC(=O)[C@H](CCCNC(=N)N)NC(=O)[C@H](Cc1ccc(O)cc1)NC(=O)[C@H](CC(C)C)NC(=O)[C@@H]1CCCN1C(=O)[C@H](CC(N)=O)NC(=O)[C@H](CCCCN)NC(=O)[C@H](C)NC(=O)[C@H](CCCCN)NC(=O)[C@H](CO)NC(=O)[C@@H](N)CCCNC(=N)N)NC(=O)[C@H](CCCCNC(=O)[C@H](CCCCNC(=O)[C@H](CCCNC(=N)N)NC(=O)[C@H](Cc1ccc(O)cc1)NC(=O)[C@H](CC(C)C)NC(=O)[C@@H]1CCCN1C(=O)[C@H](CC(N)=O)NC(=O)[C@H](CCCCN)NC(=O)[C@H](C)NC(=O)[C@H](CCCCN)NC(=O)[C@H](CO)NC(=O)[C@@H](N)CCCNC(=N)N)NC(=O)[C@H](CCCNC(=N)N)NC(=O)[C@H](Cc1ccc(O)cc1)NC(=O)[C@H](CC(C)C)NC(=O)[C@@H]1CCCN1C(=O)[C@H](CC(N)=O)NC(=O)[C@H](CCCCN)NC(=O)[C@H](C)NC(=O)[C@H](CCCCN)NC(=O)[C@H](CO)NC(=O)[C@@H](N)CCCNC(=N)N)NC(=O)[C@H](CCCCNC(=O)[C@H](CCCNC(=N)N)NC(=O)[C@H](Cc1ccc(O)cc1)NC(=O)[C@H](CC(C)C)NC(=O)[C@@H]1CCCN1C(=O)[C@H](CC(N)=O)NC(=O)[C@H](CCCCN)NC(=O)[C@H](C)NC(=O)[C@H](CCCCN)NC(=O)[C@H](CO)NC(=O)[C@@H](N)CCCNC(=N)N)NC(=O)[C@H](CCCNC(=N)N)NC(=O)[C@H](Cc1ccc(O)cc1)NC(=O)[C@H](CC(C)C)NC(=O)[C@@H]1CCCN1C(=O)[C@H](CC(N)=O)NC(=O)[C@H](CCCCN)NC(=O)[C@H](C)NC(=O)[C@H](CCCCN)NC(=O)[C@H](CO)NC(=O)[C@@H](N)CCCNC(=N)N)C(=O)NCCC(N)=O [IK248B],"phospho-ERK levels relative to control cells, dose response",HI FCS stimulated HT29 cells,decreased relative to control cells with progressively increasing dosages
same,ERK activity (as indicated by phospho-ERK levels),"HI FCS stimulated HT29 cells, 10 μM (data not shown)",entirely inhibited
same,phospho-ERK levels,"HI FCS stimulated HT29 cells, dose of 5 μM",almost totally abrogated
same,phospho-ERK levels in HT29 cells compared to normal skin fibroblast cells (selectivity for cancer cells),data not shown,significantly reduced compared to normal skin fibroblast cells
same,basal phospho-ERK level relative to control cells,"not FCS stimulated, 0.1, 0.5, 1 and 5 μM, 4 hr incubation",did not stimulate basal phospho-ERK levels
